Patent publication US10111890B2, “9-aminomethyl minocycline compounds and uses thereof” (Paratek Pharmaceuticals, Inc., priority 2016, dated 2018)

Experiment: Phase 3 oral omadacycline vs oral linezolid in ABSSSI: safety (adverse events, TEAEs, vital signs, ECG, laboratory)
Type: in vivo
Details: safety population
From the text: An Adverse Event (AE) is any untoward, undesired, or unplanned event in the form of signs, symptoms, disease, or laboratory or physiologic observations occurring in a person given a test article or in a clinical study. […] An AE includes, but is not limited to, the following: any clinically significant worsening of a preexisting condition; an AE occurring from overdose of a test article, whether accidental or intentional; overdose is a dose greater than that specified in the protocol; an AE occurring from abuse (e.g., use for nonclinical reasons) of a test article; and an AE that has been associated with the discontinuation of the use of a test article.
The severity (or intensity) of an AE was classified using the following criteria:
Concerning relatedness, causality (i.e., whether there was a reasonable possibility that test article caused the event) for all AEs and SAEs was assessed.
Safety variables include the incidence rate of AEs, change in vital signs, ECG parameters and laboratory test results obtained during the course of the study. For safety analyses, subjects were analyzed according to the treatment actually received.
Summary tables were provided for all treatment-emergent adverse events (TEAEs). A TEAE is defined as an AE with a start date and time on or after the first dose of test article. […] Additional tabulations provide summaries by SOC and PT of subjects experiencing SAEs, severe TEAEs, TEAEs judged to be related to test article, TEAEs leading to discontinuation of test article, and TEAEs of special interest.
The following variables were analyzed descriptively: Vital signs (systolic and diastolic BP, pulse rate, body temperature, respiratory rate), including change from Screening by visit; Clinically notable vital signs (meeting predefined criteria as specified in the SAP) by visit. Subjects with notable vital signs data were listed.
ECG data (RR interval, PR interval, QRS interval, QTc, QTc Bazett's Correction Formula [QTcB], and QTc Fridericia's Correction Formula [QTcF]) was summarized descriptively at each scheduled evaluation, and for the overall worst post-Screening value. Changes from Screening at each visit that a 12-lead ECG was obtained was also provided. An outlier analysis was conducted based on the worst post-Screening value.
The following variables were analyzed descriptively: Laboratory variables by visit; Change from Screening of laboratory variables by visit; and Clinically notable laboratory values (meeting predefined criteria specified in the SAP) by visit.

## CC(=O)NCC1CN(c2ccc(N3CCOCC3)c(F)c2)C(=O)O1 (stereo not drawn) [Linezolid, N-[[3-(3-fluoro-4-morpholinophenyl)-2-oxooxazolidin-5-yl]methyl]acetamide, reference compound]
  Subjects who died: 1 (0.3) n (%)
  Subjects with at Least One Adverse Events (AE): 140 (38.1) n (%)
  Subjects with at Least One Drug-Related Serious TEAE: 1 (0.3) n (%)
  Subjects with at Least One Drug-Related TEAE: 52 (14.2) n (%)
  Subjects with at Least One Serious TEAE: 5 (1.4) n (%)
  Subjects with at Least One Serious TEAE leading to Death: 1 (0.3) n (%)
  Subjects with at Least One Serious TEAEs leading to premature discontinuation of test article: 2 (0.5) n (%)
  Subjects with at Least One Severe TEAE: 7 (1.9) n (%)
  Subjects with at Least One TEAE Leading to Study Drug Discontinuation: 3 (0.8) n (%)
  Subjects with at Least One TEAE leading to dose interruption: 0 n (%)
  Subjects with at Least One TEAE leading to premature discontinuation of study: 1 (0.3) n (%)
  Subjects with at Least One TEAE leading to premature discontinuation of test article: 3 (0.8) n (%)
  TEAE leading to study drug discontinuation: Cellulitis: 0 n (%)
  TEAE leading to study drug discontinuation: Gastrointestinal Disorders (SOC): 0 n (%)
  TEAE leading to study drug discontinuation: Haematemesis: 0 n (%)
  TEAE leading to study drug discontinuation: Infections And Infestations (SOC): 1 (0.3) n (%)
  TEAE leading to study drug discontinuation: Nausea: 0 n (%)
  TEAE leading to study drug discontinuation: Pregnancy: 0 n (%)
  TEAE leading to study drug discontinuation: Pregnancy, Puerperium And Perinatal Conditions (SOC): 0 n (%)
  TEAE leading to study drug discontinuation: Staphylococcal Bacteraemia: 0 n (%)
  TEAE leading to study drug discontinuation: Subcutaneous Abscess: 0 n (%)
  TEAE leading to study drug discontinuation: Vomiting: 0 n (%)
  TEAE leading to study drug discontinuation: Wound Infection: 1 (0.3) n (%)
  TEAE: Alanine Aminotransferase Increased: 11 (3.0) n (%)
  TEAE: Aspartate Aminotransferase Increased: 12 (3.3) n (%)
  TEAE: Cellulitis: 9 (2.5) n (%)
  TEAE: Headache: 8 (2.2) n (%)
  TEAE: Wound Infection: 17 (4.6) n (%)
  Total Number of AEs: 250
  Total Number of TEAEs: 239
AE overview
  Subjects with at Least One TEAE: 137 (37.3) n (%)
All severities
  TEAE: Abdominal Pain Upper: 4 (1.1) n (%)
  TEAE: Diarrhea: 10 (2.7) n (%)
  TEAE: Nausea: 28 (7.6) n (%)
  TEAE: Vomiting: 11 (3.0) n (%)
Highest severity Mild
  Subjects with at Least One TEAE, Mild: 85 (23.2) n (%)
  TEAE: Abdominal Pain Upper, Mild: 4 (1.1) n (%)
  TEAE: Abdominal Pain, Mild: 1 (0.3) n (%)
  TEAE: Diarrhea, Mild: 9 (2.5) n (%)
  TEAE: Gastrointestinal Disorders (SOC), Mild: 44 (12.0) n (%)
  TEAE: Nausea, Mild: 24 (6.5) n (%)
  TEAE: Vomiting, Mild: 10 (2.7) n (%)
Highest severity Moderate
  Subjects with at Least One TEAE, Moderate: 45 (12.3) n (%)
  TEAE: Abdominal Pain Upper, Moderate: 0 n (%)
  TEAE: Abdominal Pain, Moderate: 1 (0.3) n (%)
  TEAE: Diarrhea, Moderate: 1 (0.3) n (%)
  TEAE: Gastrointestinal Disorders (SOC), Moderate: 8 (2.2) n (%)
  TEAE: Nausea, Moderate: 4 (1.1) n (%)
  TEAE: Vomiting, Moderate: 1 (0.3) n (%)
Highest severity Severe
  Subjects with at Least One TEAE, Severe: 7 (1.9) n (%)
  TEAE: Abdominal Pain Upper, Severe: 0 n (%)
  TEAE: Abdominal Pain, Severe: 0 n (%)
  TEAE: Diarrhea, Severe: 0 n (%)
  TEAE: Gastrointestinal Disorders (SOC), Severe: 0 n (%)
  TEAE: Nausea, Severe: 0 n (%)
  TEAE: Vomiting, Severe: 0 n (%)
Most frequent (≥2%) TEAEs table
  Subjects with at Least One TEAE: 137 (37.3) n (%)
